Source: ChEMBL document CHEMBL1201862, “PubChem BioAssay data set” (2004)
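Method: 48-hour compound exposure of cells in 96-well plates, five concentrations, linear interpolation of endpoints. Abbreviation: GI50, concentration required for 50% inhibition of growth.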 Active and inactive are the calls of the source. Rule as the data show it: active = GI50 up to about 1.1 µM and inactive = higher.

Columns and labels:
Test in all cases: NCI anticancer screen, dose series, 48 h
HCT-15 = test system: HCT-15
SNB-19 = test system: SNB-19
HL-60 = test system: HL-60
SF-268 = test system: SF-268
MDA-MB-231 = test system: MDA-MB-231
COLO 205 = test system: COLO 205
CCRF-CEM = test system: CCRF-CEM
OVCAR-5 = test system: OVCAR-5
NCI-H226 = test system: NCI-H226
CAKI-1 = test system: CAKI-1
KM-20L2 = test system: KM-20L2
MDA-N = test system: MDA-N
HOP-92 = test system: HOP-92
K562 = test system: K562
OVCAR-8 = test system: OVCAR-8
KM12 = test system: KM12
Hs-578T = test system: Hs-578T
SW-620 = test system: SW-620
MOLT-4 = test system: MOLT-4
M14 = test system: M14

Row | Structure (SMILES) | GI50 (HCT-15) | GI50 (SNB-19) | GI50 (HL-60) | GI50 (SF-268) | GI50 (MDA-MB-231) | GI50 (COLO 205) | GI50 (CCRF-CEM) | GI50 (OVCAR-5) | GI50 (NCI-H226) | GI50 (CAKI-1) | GI50 (KM-20L2) | GI50 (MDA-N) | GI50 (HOP-92) | GI50 (K562) | GI50 (OVCAR-8) | GI50 (KM12) | GI50 (Hs-578T) | GI50 (SW-620) | GI50 (MOLT-4) | GI50 (M14)
1 | c1ccc2c(NCCCCCCNc3c4ccccc4nc4ccccc34)c3ccccc3nc2c1 | 4340 nM | 649 nM (active) | 250 nM (active) | 560 nM (active) | 80 nM (active) | 235 nM (active) | 47.1 nM (active) | 130 nM (active) | 587 nM (active) | 1530 nM (inactive) | 78.5 nM (active) | 288 nM (active) | 240 nM (active) | 64.9 nM (active) | 289 nM (active) | 215 nM (active) | 682 nM (active) | 45.8 nM (active) | 14.9 nM (active) | 1230 nM (inactive)
2 | CN(C)CCN1C(=O)c2cccc3cc(N)cc(c23)C1=O [AMONAFIDE] | 2600 nM | 4210 nM (inactive) | 2240 nM (inactive) | 5460 nM (inactive) | 2460 nM (inactive) | 1550 nM (inactive) | 1910 nM (inactive) | 4830 nM (inactive) | 2400 nM (inactive) | – | 3990 nM (inactive) | 2900 nM (inactive) | 3230 nM (inactive) | 3230 nM (inactive) | 2140 nM (inactive) | 4370 nM (inactive) | 6210 nM (inactive) | 1650 nM (inactive) | 804 nM (active) | 3720 nM (inactive)
